This experiment has as its target T1, lipid A 4′ kinase (Escherichia coli, UniProt P27300).
T1 construct: The first primer introduces a Nde I site at the start codon of orfE, and the second primer introduces a BamHl site downstream of the stop codon; made in house; host or cells: E. coli BLR(DE3)pLysS/pJK2 (pET3a, T7 promoter); Controls with chromosomal kinase only: BR7 membranes and BLR(DE3)pLysS/pET3a fractions
The experiment in a line: 4′ kinase assay method II ([γ-32P]ATP donor, lipid acceptor, TLC). It is filed as biochemical, E. coli. The settings on record: for 32P from input [γ-32P]-ATP incorporated into 4′-phosphorylated product (yield): 0.6 μM [γ-32P]ATP, 100 μM lipid acceptor, 10 min, 30° C.; for utilisation as substrate of the 4′ kinase (in words): recombinant, overexpressed 4′ kinase (BLR(DE3)pLysS/pJK2 membranes). On the procedure:
FIG. 12: Effective phosphorylation of DS-1-P and DS-1-P analogs with recombinant, overproduced 4′ kinase. Washed membranes from strain BR7 and BLR(DE3)pLysS/pJK2 were used, as indicated, in 4′ kinase assays containing 100 μM of the indicated DS-1-P analog, 0.6 μM [γ-^32P] ATP, 50 mM Tris, pH 8.5, 5 mM MgCl2, 1% NP-40, 1 mg/ml cardiolipin and 0.5 mg/ml washed membranes. After a 10 minute incubation at 30° C., 5 μl of the reaction was spotted onto a Silica Gel 60 TLC plate and developed in chloroform:pyridine:formic acid:water (30:70:16:10 v/v). The plate was dried, exposed to a PhosphorImager screen and visualized using ImageQuant software. Arrows indicate the products of the reactions. If the native substrate DS-1-P is present in the reaction, [4′-^32P]-lipid IVA is formed. When 3-aza-DS-1-P, base-treated DS-1-P, or base-treated 3-aza-DS-1-P are present, 4′ phosphorylated products a, b and c are formed, respectively. The migration of each of these products is slower than the non-phosphorylated substrate analog, consistent with the phosphate incorporation. As in FIG. 9, BLR/pJK2 is an abbreviation for BLR(DE3)pLysS/pJK2, and NE indicates the no enzyme control. […] Minor ^32P containing lipids generated by membranes of BLR(DE3)pLysS/pJK2 in the absence of any acceptor substrate arise by the action of diglyceride kinase on endogenous glycerophospholipids (see especially Lane 6). The diglyceride kinase is inactivated by mutation in strain BR7 (Hampton et al, Methods in Enzymology 209:466 (1992)).
Assays for 4′ kinase activity. Two methods for analyzing 4′ kinase activity of various protein fractions were employed. The first (method I) utilizes DS-1-^32P as the labeled substrate. Typically, 100 μM DS-1-^32P (1000 cpm/nmol), 1 mg/ml cardiolipin, 50 mM Tris, pH 8.5, 5 mM ATP, 1% NP-40, and 5 mM MgCl2 are mixed with 0.5-500 μg/ml protein fraction and incubated at 30° C. for various times. Reactions were stopped by spotting a portion of the reaction onto a Silica Gel 60 thin layer chromatography plate. Plates were developed in chloroform:methanol:water:acetic acid (25:15:4:2, v/v) and analyzed as described above. Method II (which is not intended for the quantitative determination of specific activities) utilizes [γ-^32P] ATP (˜8×10^6 cpm/nmol) as the labeled substrate. The reaction conditions are exactly the same as for method I except that the ATP concentration is lowered to 0.6 μM and only non-radioactive DS-1-P (final concentration of 100 μM) is added. The reactions were stopped as described above, and plates were developed in chloroform:pyridine:formic acid:water (30:70:16:10, v/v).
Each lipid analog was tested as a 4′ kinase substrate using recombinant, overexpressed 4′ kinase in conjunction with the method II assay conditions (0.6 μM [γ-^32P]-ATP as the phosphate donor and 100 μM lipid acceptor). DS-1-P becomes phosphorylated to form [4′-^32P]-lipid IVA by BR7 membranes (containing wild-type kinase levels), but only with a yield of ˜0.5% (FIG. 11, lane 2). When BLR(DE3)pLysS/pJK2 membranes are used (FIG. 12, lane 7) more than 50% of the ^32P is incorporated into [4′-^32P]-lipid IVA. […] Products (b) and (c) are formed from base-treated DS-1-P and base treated 3-aza-DS-1-P, respectively.

From patent publication US6465631B1, “Lipid a 4′ kinase” (Duke University, priority 1997, dated 2002) come the findings set out here.

T1 sequence (P27300 whole entry): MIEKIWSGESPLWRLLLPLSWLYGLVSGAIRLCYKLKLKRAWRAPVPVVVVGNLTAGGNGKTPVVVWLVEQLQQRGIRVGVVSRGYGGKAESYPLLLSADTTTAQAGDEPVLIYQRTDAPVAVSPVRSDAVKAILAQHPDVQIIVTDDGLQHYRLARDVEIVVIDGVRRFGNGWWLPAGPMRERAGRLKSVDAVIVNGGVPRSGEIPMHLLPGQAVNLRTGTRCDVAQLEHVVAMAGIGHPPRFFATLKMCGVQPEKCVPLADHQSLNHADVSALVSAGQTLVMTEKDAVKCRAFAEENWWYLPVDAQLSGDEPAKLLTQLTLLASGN

Take `CCCCCCCCCCC[C@@H](O)CC(=O)N[C@H]1[C@H](OC[C@H]2O[C@H](OP(=O)(O)O)[C@H](NC(=O)C[C@H](O)CCCCCCCCCCC)[C@@H](OC(=O)C[C@H](O)CCCCCCCCCCC)[C@@H]2O)O[C@H](CO)[C@@H](O)[C@@H]1OC(=O)C[C@H](O)CCCCCCCCCCC` [DS-1-P, tetraacyldisaccharide-1-phosphate]: the “utilisation as substrate of the 4′ kinase (in words)” value (from here on “utilisation as substrate”) was “large amount”. Moreover, for the setting “BLR(DE3)pLysS/pJK2 membranes (recombinant, overexpressed 4′ kinase)”, the “32P from input [γ-32P]-ATP incorporated into 4′-phosphorylated product (yield)” value is “more than 50%”. The “32P from input [γ-32P]-ATP incorporated into 4′-phosphorylated product (yield)” value (BR7 membranes (wild-type kinase levels)) was about 0.5%.

Regarding “UDP-2,3-diacyl-glucosamine [UDP-diacylglucosamine]”, the “utilisation as substrate” value is reported as “not substrates”.

“2,3-diacyl-glucosamine-1-phosphate [Lipid X]”: the “utilisation as substrate” value is on record as “not substrates”.
